Assay results published in patent US20050008695A1, “Compositions and methods for delivering a biologically active agent” (Control Delivery Systems, Inc., priority 2003, published 2005).

Legend:
[1] = Hydrolysis rate (half-life) in human plasma; format: in vitro ADME
Source text: (§1) Hydrolysis Rate (half-life t½)
(§2) Hydrolysis Rate (half life t½)

[2] = Hydrolysis rate (half-life) in buffer, pH 7.4; format: physicochemical
Source text: as §1, §2

[3] = Aqueous solubility compared with constituent drugs; format: physicochemical; conditions: qualitative comparison with the unlinked drugs
[4] = not told
[5] = Lipophilicity compared with constituent drug; format: physicochemical; conditions: qualitative comparison
[6] = read-out: Hydrolysis Rate (half life t½) In Human Plasma (converted)
[7] = read-out: Hydrolysis Rate (half-life t½) In Buffer, pH7.4 (converted)
[8] = read-out: Hydrolysis Rate (half-life t½) In Human Plasma

Compound | half-life [1, 6] | half-life [2, 7] | Aqueous / water solubility relative to constituent drug(s) [3] | half-life [1, 8] | Lipophilicity relative to constituent drug [5] | further results
CC1(C)O[C@@H]2CC3C4C[C@H](F)C5=CC(=O)C=CC5(C)[C@@]4(F)CCC3(C)[C@]2(C(=O)COC(=O)Cc2ccccc2Nc2c(Cl)cccc2Cl)O1 (stereo partly shown) [Diclofenac-Fluocinolone Acetonide] | 168 h | 15 h | lower solubility under aqueous conditions than either of the constituent drugs | – | – | –
O=C(O)Cc1ccccc1Nc1c(Cl)cccc1Cl.O=C(O)c1cn(C2CC2)c2cc(N3CCNCC3)c(F)cc2c1=O [diclofenac-ciprofloxacin codrug] | – | – | – | – | – | Permeation [4]: enhanced permeation
O=C(Cc1ccccc1Nc1c(Cl)cccc1Cl)OCCOCCOCCOCCO [Diclofenac-PEG4] | – | – | higher water solubility than unionized diclofenac | 0.167 h | more lipophilic than the ionized form | half-life ([2]; read-out: Hydrolysis Rate (half life t½) In Buffer, pH7.4 (converted)): 168 h
O=C(Cc1ccccc1Nc1c(Cl)cccc1Cl)OCc1oc(=O)oc1COC(=O)Cc1ccccc1Nc1c(Cl)cccc1Cl [Diclofenac Dimer] | – | 25 h | – | 0.1 h | – | –
CC1COc2c(N3CCN(C)CC3)c(F)cc3c(=O)c(C(=O)OCCOCCOC(=O)Cc4ccccc4Nc4c(Cl)cccc4Cl)cn1c23 (stereo not shown) [Diclofenac-Ofloxacin] | 6.5 h | – | – | – | more lipophilic than ofloxacin alone | Hydrolysis Rate (half life t½) In Buffer, pH7.4 ([2]; given in words, no number): days
